This is an account of results in patent publication US20040005652A1 (priority 2002, published 2004).

The subject of experiment [1] is Bacillus anthrasis AMES-RIID and ANR-1. The class given is cell-based.
For experiment [2], the system named is Bacillus thuringiensis ATCC 10792. The class given is cell-based.
Experiment [3] relates to Bacillus cereus ATCC 14579. In kind it is cell-based.
For a further experiment, the system named is B. thuringiensis. Particulars: cited from earlier work.
The subject of the next experiment is B. anthrasis. The note with it: cited from earlier work.
The test system of a further experiment is B. cereus. The note with it: cited from earlier work.

Regarding Manganese chloride, in experiment [1], the “Bacillus anthrasis AMES-RIID and ANR-1 Colonial Morphologies 48 hours” value is on record as “cream color colony with a blue dot in the center”. In addition, the “Bacillus thuringiensis ATCC 10792 Colonial Morphologies 48 hours” value in experiment [2] is “turquoise colonies with a narrow rim”. Besides, the “Bacillus cereus ATCC 14579 Colonial Morphologies 48 hours” value in experiment [3] is “turquoise colonies with a narrow rim”.

As for `O=P(O)(Oc1c[nH]c2ccc(Br)c(Cl)c12)OC1C(O)C(O)C(O)C(O)C1O` (stereo not drawn) [5-bromo-4-chloro-3-indoxyl-myo-inositol-1-phosphate], the “colony colour, B. thuringiensis” value in the experiment with B. thuringiensis is “turquoise colonies”. Also, the “colony colour, B. anthrasis” value in the experiment with B. anthrasis is listed as “white colonies”. Also, the “colony colour, B. cereus” value in the experiment with B. cereus was “turquoise colonies”.
